Assay results published in patent US6881427B2, “Topical anti-inflammatory composition containing linseed and licorice extracts” (Alticor Inc., priority 2002, dated 2005).

Columns and labels:
Format in all cases: cell-based, human
IL-1α = IL-1α secretion from TESTSKIN II tissue (ELISA); settings: test materials neat, dexamethasone 100 μM
Method: (§1) The skin tissue used in this study, TESTSKIN II (Organogenesis Inc., Canton, Mass.), is constructed from human skin with anatomical structures and physiological functions that simulate actual living skin. This tissue has an upper epidermal layer with well-differentiated keratinocytes and stratum corneum and a lower dermal layer with living fibroblasts able to produce collagen matrix.
(§2) The test materials were evaluated for exposure periods of 4, 8, and 24 hours, and their toxicity was evaluated for an exposure period of 24 hours. Test materials 2, 4, 6, and 8 were used neat. […] All dilutions were made in growth media, and assays were performed in triplicate.
All supplies and handling equipment are sterilized, and techniques for maintaining sterility are used. Skin tissue is punched out using an 8 mm biopsy punch from the middle section and transferred to a well of a six-well plate containing transwell inserts and 1 mL of growth media. Tissues are transferred to a humidified 37° C. incubator supplied with 10% CO2 and incubated overnight.
Test materials to be used are dosed on a sterile dosing pad (10 μL/pad) and placed on top of tissue. Dosed tissues are returned to the incubator and incubated for a specified amount of time (e.g., 4 hours), after which the supernatants are replaced with fresh media. Collected supernatants are used for PGE2 and GM-CSF assays.
Assays are performed in triplicate, and the numbers shown correspond to averages of the triplicate treatments.
Tissues are pre-incubated with test materials for 4 hours prior to being stimulated by PMA or Histamine. Secreted IL-1α, PGE2 and GM-CSF are measured using the ELISA method.

TESTSKIN II = test: MTT reduction toxicity assay on TESTSKIN II skin tissue; settings: MTT % survival, 24-hour exposure; PMA 10 ng/mL
Method: The release of PGE2 and GM-CSF from skin tissue provides a measure of protective potential following pre-incubation with test materials, whereas the reduction of MTT (3-[4,5-dimethylthiazol-2yl]-2,5-diphenyl-2H-tetrazolium bromide) provides an estimate of toxicity potential.
as §1, §2
All supplies and handling equipment are sterilized, and techniques for maintaining sterility are used. […]
Tissues free of test materials are incubated with 2 mg/mL of MTT solution (made up in growth media) in a humidified 37° C. incubator supplied with 10% CO2 for 2 hours. […] Spent MTT solution is read in a 96 well flat bottom plate at A540. […]

PGE2 = PGE2 secretion from TESTSKIN II tissue (competitive ELISA); settings: after 24 hours of exposure
Method: The anti-inflammatory potential of a composition according to the present invention that includes a combination of linseed extract and licorice extract was evaluated as described herein. The release of PGE2 and GM-CSF from skin tissue provides a measure of protective potential following pre-incubation with test materials, whereas the reduction of MTT (3-[4,5-dimethylthiazol-2yl]-2,5-diphenyl-2H-tetrazolium bromide) provides an estimate of toxicity potential.
The skin tissue used in this study, TESTSKIN II (Organogenesis Inc., Canton, Mass.), is constructed from human skin with anatomical structures and physiological functions that simulate actual living skin. […]
The test materials were evaluated for exposure periods of 4, 8, and 24 hours, and their toxicity was evaluated for an exposure period of 24 hours. […]
Four controls are included: total activity, non-specific binding, maximum binding, and substrate blank. […] Following incubation, 50 μL of stop solution (trisodium phosphate solution) is added and the optical density is measured immediately at 405 nm (reference wavelength of 570-590 nm) using a microplate spectrophotometer. The amount of PGE2 present in the supernatant is determined by comparison to the calibration curve generated by the recombinant PGE2 standard. […]

| Compound | IL-1α secretion (IL-1α; 0 Hr, average of triplicate ± SD) | IL-1α secretion (IL-1α; 8 Hr) | IL-1α secretion (IL-1α; 24 Hr) | toxicity to TESTSKIN II tissue, in words (TESTSKIN II) | induction of PGE2 secretion by stimulus, in words (PGE2) |
| --- | --- | --- | --- | --- | --- |
| C[C@@H]1C[C@H]2[C@@H]3CCC4=CC(=O)C=C[C@]4(C)[C@@]3(F)[C@@H](O)C[C@]2(C)[C@@]1(O)C(=O)CO [Dexamethasone, dexamethasone] | 22.00 ± 9.69 | 24.45 ± 9.47 | 25.42 ± 8.94 | – | – |
| CCCCCCCCCCCCCC(=O)O[C@@H]1[C@@H](C)[C@@]2(O)[C@@H](C=C(CO)C[C@]3(O)C(=O)C(C)=C[C@@H]23)[C@@H]2C(C)(C)[C@]12OC(C)=O [PMA, phorbol myristate acetate] | – | – | – | mildly toxic | fails to induce PGE2 secretion above the background level |
